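Step 1: Grow cells in 96-well plates. Step 2: Expose to compound for 48 hours at 5 concentrations. Step 3: Interpolate endpoints linearly; if unreached, use highest concentration. GI50 = concentration required for 50% inhibition of growth. TGI denotes the concentration required for complete inhibition of growth.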
Columns and labels:
Test in all cases: NCI anticancer screen, dose series, 48 h
EKVX NSCLC = tested on: EKVX NSCLC
A549 NSCLC = tested on: A549 NSCLC
SNB-75 CNS = tested on: SNB-75 CNS
K-562 leukemia = tested on: K-562 leukemia
UACC-257 melanoma = tested on: UACC-257 melanoma
RXF 393 renal = tested on: RXF 393 renal
RPMI-8226 leukemia = tested on: RPMI-8226 leukemia
786-0 renal = tested on: 786-0 renal
SR leukemia = tested on: SR leukemia
LOX IMVI melanoma = tested on: LOX IMVI melanoma
UACC-62 melanoma = tested on: UACC-62 melanoma
M14 melanoma = tested on: M14 melanoma
SK-OV-3 ovarian = tested on: SK-OV-3 ovarian
HS 578T breast = tested on: HS 578T breast
DU-145 prostate = tested on: DU-145 prostate
NCI-H226 lung = tested on: NCI-H226 lung
A498 renal = tested on: A498 renal
ACHN renal = tested on: ACHN renal

| SMILES | TGI (EKVX NSCLC) | TGI (A549 NSCLC) | TGI (SNB-75 CNS) | TGI (K-562 leukemia) | TGI (UACC-257 melanoma) | TGI (RXF 393 renal) | TGI (RPMI-8226 leukemia) | TGI (786-0 renal) | TGI (SR leukemia) | TGI (LOX IMVI melanoma) | TGI (UACC-62 melanoma) | TGI (M14 melanoma) | TGI (SK-OV-3 ovarian) | TGI (HS 578T breast) | TGI (DU-145 prostate) | TGI (NCI-H226 lung) | TGI (A498 renal) | TGI (ACHN renal) | GI50 (DU-145 prostate) |
| --- | --- | --- | --- | --- | --- | --- | --- | --- | --- | --- | --- | --- | --- | --- | --- | --- | --- | --- | --- |
| Cc1cc(S(=O)(=O)Nc2nc(N)n(-c3ccccn3)n2)c(S)cc1Cl | > 100 µM | > 100 µM | > 100 µM | > 100 µM | > 100 µM | > 100 µM | > 100 µM | > 100 µM | > 100 µM | > 100 µM | > 100 µM | > 100 µM | > 100 µM | > 100 µM | > 100 µM | > 100 µM | > 100 µM | > 100 µM |  |
| CCOC(=O)C1(Cc2ccccc2)C=CN(C(=O)c2ccccc2)C=C1 | > 100 µM | > 100 µM | 64.2 µM | > 100 µM | 51.1 µM | > 100 µM | 48.6 µM | > 100 µM | 67.5 µM | > 100 µM | 72.9 µM | > 100 µM | > 100 µM | > 100 µM | > 100 µM | > 100 µM | 74.3 µM | > 100 µM |  |
| CN(C)/N=C(/CC(O)(C(F)(F)F)C(F)(F)F)c1ccc([N+](=O)[O-])cc1 | > 100 µM | > 100 µM | > 100 µM | > 100 µM | > 100 µM | > 100 µM | > 100 µM | > 100 µM | > 100 µM | > 100 µM | > 100 µM | > 100 µM | > 100 µM | > 100 µM | > 100 µM | > 100 µM | > 100 µM | > 100 µM |  |
| COc1nc(N=P(c2ccccc2)(c2ccccc2)c2ccccc2)cc(=O)[nH]1 | > 100 µM | > 100 µM | > 100 µM | > 100 µM | > 100 µM | > 100 µM | > 100 µM | > 100 µM | > 100 µM | > 100 µM | > 100 µM | > 100 µM | > 100 µM | > 100 µM | > 100 µM | > 100 µM | > 100 µM | > 100 µM |  |
| CN(CCC(=O)O)C1=Nc2ccc(Cl)cc2C(c2ccccc2)=[N+]([O-])C1 | > 100 µM | > 100 µM | > 100 µM | > 100 µM | > 100 µM | > 100 µM | > 100 µM | > 100 µM | > 100 µM | > 100 µM | > 100 µM | > 100 µM | > 100 µM | > 100 µM | > 100 µM | > 100 µM | > 100 µM | > 100 µM |  |
| CCC/C=C/c1cc2c(cc1O)CC[C@@H]1[C@@H]2CC[C@]2(C)[C@@H](O)CC[C@@H]12 | 41.2 µM | 36.9 µM | 34.6 µM | 45.5 µM | 30.8 µM | 33.2 µM | 37.5 µM | 30.1 µM | 45.7 µM | 29.3 µM | 29 µM | 37.3 µM | 63.2 µM | 57.6 µM | 34.2 µM | 45.8 µM | 31.8 µM | 34.2 µM | 18.7 µM |
| COC1(C)CP(=O)(OC(C)C)CC(C)=C1Cl (centres undefined) | 29.6 µM | > 100 µM | > 100 µM | 7.89 µM | 72.1 µM | 55.2 µM | 24.4 µM | 60 µM | > 100 µM | 39.4 µM | 25.6 µM | 46.2 µM | > 100 µM | > 100 µM | 82.7 µM | 78.2 µM | 37.6 µM | > 100 µM |  |
| COC(=O)C1=C(O)C(C(=O)OC)[C@]2(O)[C@H](C(=O)OC)[C@H]1C[C@@H](c1ccc(OC)c(OC)c1)[C@H]2C(=O)OC (some centres undefined) | > 100 µM | 54.4 µM | 46 µM | 77.3 µM | > 100 µM | 48.4 µM | 19.1 µM | > 100 µM | 46.6 µM | 29.6 µM | > 100 µM | > 100 µM | 68.2 µM | > 100 µM | 93.8 µM | 29 µM | 54.7 µM | > 100 µM |  |
| COc1cc2ncnc(Nc3cccc(Cl)c3)c2cc1OC | 15.7 µM | 49 µM | 13.4 µM | 47.3 µM | 37.4 µM | 26.8 µM | 42.3 µM | 44.1 µM | 24.1 µM | 43 µM | 22 µM | 25.4 µM | 28.9 µM | 25 µM | 38.3 µM | 14.8 µM | 9.84 µM | 54.5 µM |  |
| Nc1nc(I)nc2c1ncn2C1OC(COS(N)(=O)=O)C(O)C1O (centres undefined) | 0.0573 µM | 0.201 µM | < 0.0136 µM | 0.37 µM | 0.0716 µM | 0.0441 µM | 0.172 µM | 0.0297 µM | < 0.01 µM | 0.0251 µM | 0.0606 µM | 0.028 µM | 0.0458 µM | 0.0273 µM | < 0.0193 µM | < 0.0159 µM | < 0.01 µM | 0.211 µM |  |
| COc1ccc(N2C(=O)/C(=C/c3ccc(N(CCC#N)CCC#N)cc3C)N=C2c2cc([N+](=O)[O-])ccc2Cl)cc1 | > 46.4 µM | > 72 µM | 7.06 µM | 36.7 µM | > 56.2 µM | > 46.4 µM | > 63.1 µM | 43.7 µM | 35.4 µM | > 56.2 µM | > 46.4 µM | 24.4 µM | > 63.1 µM | 5.96 µM | 34.8 µM | 42.8 µM | > 56.2 µM | > 63.1 µM |  |

Source: PubChem BioAssay (NCI)
